Results published in patent US10815230B2, “Casein kinase 1 delta inhibitor” (ELECTROPHORETICS LIMITED, priority 2015, dated 2020).

Tests used:
Assay in all cases: KINOMEscan binding assay
Details in all cases: read-out: % Ctrl @ 10000 nM
[1] = target: ABL1 (H396P) non-phosphorylated (Homo sapiens, UniProt P00519, H396P)
ADCK4 = ADCK4 (Homo sapiens, UniProt Q96D53)
AMPK-alpha1 = AMPK-alpha1 (Homo sapiens, UniProt Q13131)
AMPK-alpha2 = AMPK-alpha2 (Homo sapiens, UniProt P54646)
AXL = AXL (Homo sapiens, UniProt P30530)
BIKE = BIKE (Homo sapiens, UniProt Q9NSY1)
CAMK1D = CAMK1D (Homo sapiens, UniProt Q8IU85)
CDC2L2 = CDC2L2 (Homo sapiens, UniProt Q9UQ88)
CDC2L5 = CDC2L5 (Homo sapiens, UniProt Q14004)
CDK7 = CDK7 (Homo sapiens, UniProt P50613)
CDK8 = CDK8 (Homo sapiens, UniProt P49336)
CDKL1 = CDKL1 (Homo sapiens, UniProt Q00532)
CSNK2A1 = CSNK2A1 (Homo sapiens, UniProt P68400)
DCAMKL3 = DCAMKL3 (Homo sapiens, UniProt Q9C098)
DYRK1B = DYRK1B (Homo sapiens, UniProt Q9Y463)
EGFR (L858R) = EGFR (L858R) (Homo sapiens, UniProt P00533, L858R)
EPHA5 = EPHA5 (Homo sapiens, UniProt P54756)
ERBB4 = ERBB4 (Homo sapiens, UniProt Q15303)
ERK5 = ERK5 (Homo sapiens, UniProt Q13164)
FLT1 = FLT1 (Homo sapiens, UniProt P17948)
FLT3-autoinhibited = FLT3-autoinhibited (Homo sapiens, UniProt P36888)
LRRK2 (G2019S) = target: T1, LRRK2 (G2019S) (Homo sapiens, UniProt Q5S007, G2019S)
T1 construct: T7 phage fusion (most assays) or DNA label after HEK293 expression; purchased DiscoveRx (KINOMEscan, LeadHunter Discovery services); host or cells: T7 phage in E. coli (BL21-derived) or HEK293

MAP3K4 = target: T2, MAP3K4 (Homo sapiens, UniProt Q9Y6R4)
T2 construct: T7 phage fusion (most assays) or DNA label after HEK293 expression; purchased DiscoveRx (KINOMEscan, LeadHunter Discovery services); host or cells: T7 phage in E. coli (BL21-derived) or HEK293

NDR2 = NDR2 (Homo sapiens, UniProt Q9Y2H1)
p38-beta = p38-beta (Homo sapiens, UniProt Q15759)
PFTAIRE2 = PFTAIRE2 (Homo sapiens, UniProt Q96Q40)
PRKX = PRKX (Homo sapiens, UniProt P51817)
PYK2 = PYK2 (Homo sapiens, UniProt Q14289)
RIOK3 = RIOK3 (Homo sapiens, UniProt O14730)
[2] = target: RPS6KA4 Kin.Dom.2-C-terminal (Homo sapiens, UniProt O75676)
SgK110 = SgK110 (Homo sapiens, UniProt P0C264)
SIK2 = SIK2 (Homo sapiens, UniProt Q9H0K1)
SLK = SLK (Homo sapiens, UniProt Q9H2G2)
SNARK = SNARK (Homo sapiens, UniProt Q9H093)
SRPK1 = SRPK1 (Homo sapiens, UniProt Q96SB4)
SRPK3 = SRPK3 (Homo sapiens, UniProt Q9UPE1)
TAOK3 = TAOK3 (Homo sapiens, UniProt Q9H2K8)
TBK1 = TBK1 (Homo sapiens, UniProt Q9UHD2)
TGFBR2 = TGFBR2 (Homo sapiens, UniProt P37173)
TLK2 = TLK2 (Homo sapiens, UniProt Q86UE8)
TNK1 = TNK1 (Homo sapiens, UniProt Q13470)
WNK1 = target: T3, WNK1 (Homo sapiens, UniProt Q9H4A3)
T3 construct: purchased DiscoveRx (KINOMEscan, LeadHunter Discovery services)

RPS6KA4 Kin.Dom.2-C-terminal, sequence (O75676 411-674 limits assumed): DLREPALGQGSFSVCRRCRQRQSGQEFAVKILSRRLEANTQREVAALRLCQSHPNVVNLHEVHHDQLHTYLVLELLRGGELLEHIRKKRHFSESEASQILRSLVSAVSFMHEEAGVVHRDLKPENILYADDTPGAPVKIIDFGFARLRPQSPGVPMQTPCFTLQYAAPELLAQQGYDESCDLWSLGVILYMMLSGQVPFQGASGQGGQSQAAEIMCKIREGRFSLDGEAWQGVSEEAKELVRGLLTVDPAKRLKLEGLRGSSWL
CAMK1D, sequence (Q8IU85 whole entry): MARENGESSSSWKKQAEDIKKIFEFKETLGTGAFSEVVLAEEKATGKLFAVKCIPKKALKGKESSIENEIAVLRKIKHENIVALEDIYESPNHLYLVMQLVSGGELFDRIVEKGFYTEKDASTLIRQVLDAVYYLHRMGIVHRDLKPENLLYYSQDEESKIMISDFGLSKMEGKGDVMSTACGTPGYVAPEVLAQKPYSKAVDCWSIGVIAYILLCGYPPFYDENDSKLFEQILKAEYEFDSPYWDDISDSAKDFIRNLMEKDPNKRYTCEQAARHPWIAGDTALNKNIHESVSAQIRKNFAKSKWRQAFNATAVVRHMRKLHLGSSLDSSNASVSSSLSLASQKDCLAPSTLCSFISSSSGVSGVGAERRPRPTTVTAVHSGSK
FLT3-autoinhibited, sequence (P36888 564-993 limits assumed): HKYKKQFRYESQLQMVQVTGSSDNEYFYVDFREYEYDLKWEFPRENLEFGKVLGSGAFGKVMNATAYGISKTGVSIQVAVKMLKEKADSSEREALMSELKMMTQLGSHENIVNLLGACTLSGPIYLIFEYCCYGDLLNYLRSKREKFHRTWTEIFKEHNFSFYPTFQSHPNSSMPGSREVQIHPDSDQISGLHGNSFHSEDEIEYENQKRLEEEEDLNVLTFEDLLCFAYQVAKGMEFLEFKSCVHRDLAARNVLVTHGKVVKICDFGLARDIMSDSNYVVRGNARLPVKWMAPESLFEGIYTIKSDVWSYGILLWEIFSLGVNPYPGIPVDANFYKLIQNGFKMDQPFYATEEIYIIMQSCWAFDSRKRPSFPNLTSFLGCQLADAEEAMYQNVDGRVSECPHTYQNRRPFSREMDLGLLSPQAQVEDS
SIK2, sequence (Q9H0K1 whole entry): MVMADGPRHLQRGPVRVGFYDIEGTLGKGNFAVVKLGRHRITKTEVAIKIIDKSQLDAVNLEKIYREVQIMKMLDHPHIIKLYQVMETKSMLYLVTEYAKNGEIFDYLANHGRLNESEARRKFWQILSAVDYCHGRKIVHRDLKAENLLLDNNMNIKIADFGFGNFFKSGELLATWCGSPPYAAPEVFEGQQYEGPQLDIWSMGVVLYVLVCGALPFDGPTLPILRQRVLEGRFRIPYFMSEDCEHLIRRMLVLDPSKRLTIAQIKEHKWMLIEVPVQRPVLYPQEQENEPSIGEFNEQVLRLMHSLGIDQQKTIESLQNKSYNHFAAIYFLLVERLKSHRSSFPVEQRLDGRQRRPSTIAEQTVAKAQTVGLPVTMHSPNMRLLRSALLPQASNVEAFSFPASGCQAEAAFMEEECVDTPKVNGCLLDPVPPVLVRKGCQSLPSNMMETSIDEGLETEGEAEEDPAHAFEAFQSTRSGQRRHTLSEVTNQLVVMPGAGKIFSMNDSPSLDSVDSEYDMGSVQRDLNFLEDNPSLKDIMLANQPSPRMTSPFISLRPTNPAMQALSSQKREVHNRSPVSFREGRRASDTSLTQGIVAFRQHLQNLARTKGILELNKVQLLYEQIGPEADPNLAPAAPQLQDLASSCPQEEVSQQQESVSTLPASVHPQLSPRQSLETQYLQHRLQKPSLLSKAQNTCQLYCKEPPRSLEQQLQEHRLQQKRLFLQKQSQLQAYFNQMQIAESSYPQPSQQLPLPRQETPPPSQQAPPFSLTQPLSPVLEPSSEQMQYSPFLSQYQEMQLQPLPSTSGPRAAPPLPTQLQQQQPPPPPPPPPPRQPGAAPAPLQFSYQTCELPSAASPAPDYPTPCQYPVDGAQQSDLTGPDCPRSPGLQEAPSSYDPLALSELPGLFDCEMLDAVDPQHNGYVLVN
SgK110, sequence (P0C264 whole entry): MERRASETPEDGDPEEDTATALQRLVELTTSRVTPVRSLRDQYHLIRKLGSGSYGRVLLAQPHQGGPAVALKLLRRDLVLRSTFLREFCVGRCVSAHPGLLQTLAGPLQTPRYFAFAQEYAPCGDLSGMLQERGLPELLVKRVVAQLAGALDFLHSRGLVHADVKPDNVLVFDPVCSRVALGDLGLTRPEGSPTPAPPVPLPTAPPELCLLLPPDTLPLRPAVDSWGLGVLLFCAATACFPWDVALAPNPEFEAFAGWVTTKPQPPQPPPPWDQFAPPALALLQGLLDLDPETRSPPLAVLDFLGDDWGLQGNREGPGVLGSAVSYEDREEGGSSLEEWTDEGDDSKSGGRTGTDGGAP
p38-beta, sequence (Q15759 whole entry): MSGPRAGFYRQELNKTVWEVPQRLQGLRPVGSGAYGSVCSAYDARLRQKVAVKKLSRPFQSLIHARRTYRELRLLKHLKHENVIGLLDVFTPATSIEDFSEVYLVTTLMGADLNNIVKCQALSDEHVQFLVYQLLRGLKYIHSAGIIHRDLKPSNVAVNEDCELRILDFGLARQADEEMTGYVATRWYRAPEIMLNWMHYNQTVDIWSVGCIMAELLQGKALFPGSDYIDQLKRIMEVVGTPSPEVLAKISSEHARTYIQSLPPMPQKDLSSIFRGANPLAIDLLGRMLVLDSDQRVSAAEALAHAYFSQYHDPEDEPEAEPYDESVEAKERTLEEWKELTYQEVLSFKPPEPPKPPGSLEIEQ
SRPK3, sequence (Q9UPE1 whole entry): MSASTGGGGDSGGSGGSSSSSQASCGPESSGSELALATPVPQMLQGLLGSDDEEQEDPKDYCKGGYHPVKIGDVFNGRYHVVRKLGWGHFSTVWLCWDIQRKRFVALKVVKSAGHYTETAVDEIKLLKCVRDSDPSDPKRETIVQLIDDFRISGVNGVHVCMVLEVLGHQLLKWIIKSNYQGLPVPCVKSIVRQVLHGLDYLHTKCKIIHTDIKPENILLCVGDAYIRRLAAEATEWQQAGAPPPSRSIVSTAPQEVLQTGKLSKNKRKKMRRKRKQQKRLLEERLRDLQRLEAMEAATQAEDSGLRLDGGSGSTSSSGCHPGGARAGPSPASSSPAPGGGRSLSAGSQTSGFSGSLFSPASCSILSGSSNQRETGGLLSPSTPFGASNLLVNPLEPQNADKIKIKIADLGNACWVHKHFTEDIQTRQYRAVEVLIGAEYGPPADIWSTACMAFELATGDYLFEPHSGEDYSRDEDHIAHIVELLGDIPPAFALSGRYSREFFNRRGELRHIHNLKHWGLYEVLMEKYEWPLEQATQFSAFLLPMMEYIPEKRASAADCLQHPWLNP
PFTAIRE2, sequence (Q96Q40 whole entry): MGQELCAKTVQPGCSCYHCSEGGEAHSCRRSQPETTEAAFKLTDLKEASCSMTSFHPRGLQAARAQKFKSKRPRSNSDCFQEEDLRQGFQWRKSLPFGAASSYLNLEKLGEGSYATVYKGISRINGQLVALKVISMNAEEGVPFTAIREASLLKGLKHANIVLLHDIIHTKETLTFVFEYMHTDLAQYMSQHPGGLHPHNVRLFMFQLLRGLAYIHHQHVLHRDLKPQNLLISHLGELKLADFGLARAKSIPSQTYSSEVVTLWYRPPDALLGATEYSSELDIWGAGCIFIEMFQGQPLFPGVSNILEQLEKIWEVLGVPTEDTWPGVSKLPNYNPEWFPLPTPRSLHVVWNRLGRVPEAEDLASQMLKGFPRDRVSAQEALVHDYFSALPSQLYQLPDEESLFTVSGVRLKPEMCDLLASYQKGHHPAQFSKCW
RIOK3, sequence (O14730 whole entry): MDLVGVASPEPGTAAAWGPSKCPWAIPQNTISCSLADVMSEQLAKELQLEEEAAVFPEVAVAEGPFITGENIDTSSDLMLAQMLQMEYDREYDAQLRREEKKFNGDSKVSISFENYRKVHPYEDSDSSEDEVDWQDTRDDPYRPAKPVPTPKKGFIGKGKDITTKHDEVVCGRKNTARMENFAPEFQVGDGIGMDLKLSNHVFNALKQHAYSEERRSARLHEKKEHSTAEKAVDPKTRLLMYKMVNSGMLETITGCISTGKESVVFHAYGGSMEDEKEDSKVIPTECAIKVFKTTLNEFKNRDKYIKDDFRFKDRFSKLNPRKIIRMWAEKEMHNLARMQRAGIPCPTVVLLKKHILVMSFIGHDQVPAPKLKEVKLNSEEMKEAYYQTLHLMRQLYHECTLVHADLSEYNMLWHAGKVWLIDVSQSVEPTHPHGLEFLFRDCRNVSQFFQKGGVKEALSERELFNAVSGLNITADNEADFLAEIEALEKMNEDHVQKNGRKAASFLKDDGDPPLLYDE
PRKX, sequence (P51817 whole entry): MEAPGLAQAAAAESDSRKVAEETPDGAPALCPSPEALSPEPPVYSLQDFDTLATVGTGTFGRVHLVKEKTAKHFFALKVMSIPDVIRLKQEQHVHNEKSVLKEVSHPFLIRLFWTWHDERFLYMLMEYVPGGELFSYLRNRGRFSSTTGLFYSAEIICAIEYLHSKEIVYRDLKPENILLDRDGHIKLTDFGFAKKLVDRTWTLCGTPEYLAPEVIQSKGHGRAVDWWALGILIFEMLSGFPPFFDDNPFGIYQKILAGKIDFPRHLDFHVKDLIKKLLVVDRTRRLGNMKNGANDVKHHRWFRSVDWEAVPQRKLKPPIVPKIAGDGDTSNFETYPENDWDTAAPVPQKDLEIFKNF
CDK7, sequence (P50613 whole entry): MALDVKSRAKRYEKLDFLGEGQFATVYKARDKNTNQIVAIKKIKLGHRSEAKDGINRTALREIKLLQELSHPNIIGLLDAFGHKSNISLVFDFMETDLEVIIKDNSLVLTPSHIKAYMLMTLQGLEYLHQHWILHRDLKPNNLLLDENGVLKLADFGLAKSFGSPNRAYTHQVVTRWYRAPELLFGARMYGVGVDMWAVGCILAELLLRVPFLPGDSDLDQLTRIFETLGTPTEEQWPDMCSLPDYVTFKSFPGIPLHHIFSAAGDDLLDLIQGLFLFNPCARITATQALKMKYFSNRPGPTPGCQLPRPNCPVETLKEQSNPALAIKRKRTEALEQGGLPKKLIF

Nc1ncc(-c2nc3ccccc3o2)c(-c2ccncc2)n1 [Comparative Compound 324, 5-(1,3-benzoxazol-2-yl)-4-(pyridine-4-yl)pyrimidin-2-amine] showed a remaining binding at 10 µM [1] of 66%, a remaining binding at 10 µM (ADCK4) of 100% and a remaining binding at 10 µM (AMPK-alpha1) of 98%. The remaining binding at 10 µM (AMPK-alpha2) was 100%, the remaining binding at 10 µM (AXL) was 100% and the remaining binding at 10 µM (BIKE) was 100%. It also gave a remaining binding at 10 µM (CAMK1D) of 96%, a remaining binding at 10 µM (CDC2L2) of 100% and a remaining binding at 10 µM (CDC2L5) of 93%. For the same molecule, the remaining binding at 10 µM (CDK7) was 70%, the remaining binding at 10 µM (CDK8) was 100% and the remaining binding at 10 µM (CDKL1) was 68%. For the same molecule, the remaining binding at 10 µM (CSNK2A1) was 56%, the remaining binding at 10 µM (DCAMKL3) was 100% and the remaining binding at 10 µM (DYRK1B) was 97%. For the same molecule, the remaining binding at 10 µM (EGFR (L858R)) was 76%, the remaining binding at 10 µM (EPHA5) was 100% and the remaining binding at 10 µM (ERBB4) was 100%. For the same molecule, the remaining binding at 10 µM (ERK5) was 93%, the remaining binding at 10 µM (FLT1) was 91% and the remaining binding at 10 µM (FLT3-autoinhibited) was 95%. For the same molecule, the remaining binding at 10 µM (LRRK2 (G2019S)) was 76%, the remaining binding at 10 µM (MAP3K4) was 51% and the remaining binding at 10 µM (NDR2) was 96%. The remaining binding at 10 µM (p38-beta) was 100%, the remaining binding at 10 µM (PFTAIRE2) was 100% and the remaining binding at 10 µM (PRKX) was 100%. For the same molecule, the remaining binding at 10 µM (PYK2) was 100%, the remaining binding at 10 µM (RIOK3) was 57% and the remaining binding at 10 µM [2] was 100%. It also gave a remaining binding at 10 µM (SgK110) of 94%, a remaining binding at 10 µM (SIK2) of 100% and a remaining binding at 10 µM (SLK) of 63%. For the same molecule, the remaining binding at 10 µM (SNARK) was 98%, the remaining binding at 10 µM (SRPK1) was 64% and the remaining binding at 10 µM (SRPK3) was 99%. The remaining binding at 10 µM (TAOK3) was 91%, the remaining binding at 10 µM (TBK1) was 85% and the remaining binding at 10 µM (TGFBR2) was 100%. It also gave a remaining binding at 10 µM (TLK2) of 100%, a remaining binding at 10 µM (TNK1) of 97% and a remaining binding at 10 µM (WNK1) of 81%.
Molecule CNc1c(C(N)=O)c2ccccn2c1C(=O)c1ccc(F)cc1 [Compound A, 2-methyl-amino-3-[(4-fluorophenyl)carbonyl]indolizine-1-carboxamide] has a remaining binding at 10 µM [1] of 14%, a remaining binding at 10 µM (ADCK4) of 84% and a remaining binding at 10 µM (AMPK-alpha1) of 91%. The remaining binding at 10 µM (AMPK-alpha2) was 99%, the remaining binding at 10 µM (AXL) was 95% and the remaining binding at 10 µM (BIKE) was 85%. For the same molecule, the remaining binding at 10 µM (CAMK1D) was 97%, the remaining binding at 10 µM (CDC2L2) was 91% and the remaining binding at 10 µM (CDC2L5) was 89%. The remaining binding at 10 µM (CDK7) was 56%, the remaining binding at 10 µM (CDK8) was 99% and the remaining binding at 10 µM (CDKL1) was 61%. For the same molecule, the remaining binding at 10 µM (CSNK2A1) was 53%, the remaining binding at 10 µM (DCAMKL3) was 100% and the remaining binding at 10 µM (DYRK1B) was 89%. The remaining binding at 10 µM (EGFR (L858R)) was 25%, the remaining binding at 10 µM (EPHA5) was 70% and the remaining binding at 10 µM (ERBB4) was 64%. The remaining binding at 10 µM (ERK5) was 78%, the remaining binding at 10 µM (FLT1) was 91% and the remaining binding at 10 µM (FLT3-autoinhibited) was 87%. It also gave a remaining binding at 10 µM (LRRK2 (G2019S)) of 86%, a remaining binding at 10 µM (MAP3K4) of 35% and a remaining binding at 10 µM (NDR2) of 85%. For the same molecule, the remaining binding at 10 µM (p38-beta) was 100%, the remaining binding at 10 µM (PFTAIRE2) was 100% and the remaining binding at 10 µM (PRKX) was 100%. The remaining binding at 10 µM (PYK2) was 100%, the remaining binding at 10 µM (RIOK3) was 72% and the remaining binding at 10 µM [2] was 100%. The remaining binding at 10 µM (SgK110) was 92%, the remaining binding at 10 µM (SIK2) was 59% and the remaining binding at 10 µM (SLK) was 100%. It also gave a remaining binding at 10 µM (SNARK) of 91%, a remaining binding at 10 µM (SRPK1) of 49% and a remaining binding at 10 µM (SRPK3) of 92%. For the same molecule, the remaining binding at 10 µM (TAOK3) was 93%, the remaining binding at 10 µM (TBK1) was 74% and the remaining binding at 10 µM (TGFBR2) was 100%. It also gave a remaining binding at 10 µM (TLK2) of 94%, a remaining binding at 10 µM (TNK1) of 99% and a remaining binding at 10 µM (WNK1) of 69%.
